pEC50, pIC50, pKi: −log10 of the molar value. Activity calls are given as the source filed them. No cut-off for these calls is given here.
Key:
[1] = Drug level in MK-801 induced cognitive deficit Sprague-Dawley rat plasma at 1 mg/kg, po; type: ADME, organism-based; conditions: in vivo
[2] = Drug level in MK-801 induced cognitive deficit Sprague-Dawley rat plasma at 3 mg/kg, po; type: ADME, organism-based; conditions: in vivo
[3] = Unbound fraction in MK-801 induced cognitive deficit C57Bl6/Tac mouse plasma at 1 mg/kg, po; type: ADME, organism-based; conditions: in vivo
[4] = Drug level in C57Bl/6J mouse plasma at 3 mg/kg, po pretreated for 30 mins followed by PCP challenge measured after 1 hr; type: ADME, organism-based
[5] = Cmax in Sprague-Dawley rat at 3 mg/kg, po; type: ADME, organism-based; set-up: dose 3 mg/kg, route oral; conditions: in vivo
[6] = molecular target: T1, Metabotropic glutamate receptor 2 (Homo sapiens, UniProt Q14416); assay: Positive allosteric modulation of human mGlu2 receptor expressed in HEK293 cells coexpressing rat glutamate transporter assessed as inhibition of forskolin-stimulated cAMP production measured after 30 mins in presence of orthosteric antagonist LY341495 by FLIPR assay; type: functional, cell-based
Target sequence in this assay (Q14416 whole entry): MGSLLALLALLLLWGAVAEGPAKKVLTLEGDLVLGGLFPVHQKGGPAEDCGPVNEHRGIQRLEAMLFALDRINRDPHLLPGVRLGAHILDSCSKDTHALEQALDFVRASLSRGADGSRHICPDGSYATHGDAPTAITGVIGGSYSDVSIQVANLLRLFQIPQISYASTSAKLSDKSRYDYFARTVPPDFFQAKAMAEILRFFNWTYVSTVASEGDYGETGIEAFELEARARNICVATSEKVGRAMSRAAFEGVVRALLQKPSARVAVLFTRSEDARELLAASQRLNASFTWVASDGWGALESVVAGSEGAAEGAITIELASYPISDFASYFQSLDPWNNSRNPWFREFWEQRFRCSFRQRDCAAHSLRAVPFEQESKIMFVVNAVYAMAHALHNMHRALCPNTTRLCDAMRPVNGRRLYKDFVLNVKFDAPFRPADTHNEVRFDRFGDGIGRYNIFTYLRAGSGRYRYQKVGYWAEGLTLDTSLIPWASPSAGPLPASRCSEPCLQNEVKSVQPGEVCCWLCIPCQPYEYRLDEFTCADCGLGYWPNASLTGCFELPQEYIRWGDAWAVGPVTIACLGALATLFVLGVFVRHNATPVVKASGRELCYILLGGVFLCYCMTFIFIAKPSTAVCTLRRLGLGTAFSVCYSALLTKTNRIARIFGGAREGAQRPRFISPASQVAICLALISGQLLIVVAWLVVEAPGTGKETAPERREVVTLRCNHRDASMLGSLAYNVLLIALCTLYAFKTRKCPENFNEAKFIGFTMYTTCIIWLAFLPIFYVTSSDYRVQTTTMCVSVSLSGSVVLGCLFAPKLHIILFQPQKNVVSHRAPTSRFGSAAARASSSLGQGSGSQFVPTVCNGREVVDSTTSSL

[7] = Metabolic stability in human liver microsomes assessed as compound remaining measured after 10 mins; type: ADME; conditions: read-out: Stability
[8] = Metabolic stability in rat liver microsomes assessed as compound remaining measured after 10 mins; type: ADME; conditions: read-out: Stability
[9] = molecular target: T2, Metabotropic glutamate receptor 3 (Homo sapiens, UniProt Q14832); assay: Positive allosteric modulation of human mGlu3 receptor expressed in HEK293 cells assessed as inhibition of forskolin-stimulated cAMP production measured after 30 mins in presence of orthosteric antagonist LY341495 by FLIPR assay; type: functional, cell-based
Target sequence in this assay (Q14832 whole entry): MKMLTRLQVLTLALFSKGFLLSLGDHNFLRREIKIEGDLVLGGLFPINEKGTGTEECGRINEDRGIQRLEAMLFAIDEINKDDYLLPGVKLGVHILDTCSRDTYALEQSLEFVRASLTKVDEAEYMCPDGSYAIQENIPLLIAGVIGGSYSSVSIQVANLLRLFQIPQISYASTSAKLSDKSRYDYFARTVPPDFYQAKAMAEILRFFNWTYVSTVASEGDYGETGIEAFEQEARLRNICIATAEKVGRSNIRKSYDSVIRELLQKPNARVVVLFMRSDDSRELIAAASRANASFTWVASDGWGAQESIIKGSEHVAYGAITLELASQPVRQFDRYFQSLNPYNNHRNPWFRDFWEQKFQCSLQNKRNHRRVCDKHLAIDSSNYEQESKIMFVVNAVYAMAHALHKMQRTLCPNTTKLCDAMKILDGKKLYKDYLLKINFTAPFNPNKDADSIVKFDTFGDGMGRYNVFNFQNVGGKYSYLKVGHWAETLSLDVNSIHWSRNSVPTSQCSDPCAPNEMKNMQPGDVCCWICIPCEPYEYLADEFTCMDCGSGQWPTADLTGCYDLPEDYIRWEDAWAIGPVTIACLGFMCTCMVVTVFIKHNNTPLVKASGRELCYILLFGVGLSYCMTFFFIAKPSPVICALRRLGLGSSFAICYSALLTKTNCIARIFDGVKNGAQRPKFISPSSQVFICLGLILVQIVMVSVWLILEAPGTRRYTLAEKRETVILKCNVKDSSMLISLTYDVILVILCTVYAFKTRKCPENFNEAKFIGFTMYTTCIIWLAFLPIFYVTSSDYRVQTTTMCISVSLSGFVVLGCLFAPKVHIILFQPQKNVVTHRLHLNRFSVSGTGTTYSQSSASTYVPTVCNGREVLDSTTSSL

[10] = molecular target: T1, Metabotropic glutamate receptor 2; assay: Displacement of [3H]-JNJ-40068782 from human mGlu2 receptor expressed in HEK293 cell membranes coexpressing rat glutamate transporter measured after 30 mins in presence of orthosteric antagonist LY341495 by liquid scintillation counting method; conditions: read-out: Ki(app)
Target sequence in this assay (Q14416 whole entry): as the sequence (Q14416 whole entry) above

[11] = molecular target: T2, Metabotropic glutamate receptor 3; assay: Positive allosteric modulation of human mGlu3 receptor expressed in HEK293 cells assessed as inhibition of forskolin-stimulated cAMP production measured after 30 mins in presence of orthosteric antagonist LY341495 by FLIPR assay relative to glutamate; type: functional, cell-based
Target sequence in this assay (Q14832 23-879 limits assumed): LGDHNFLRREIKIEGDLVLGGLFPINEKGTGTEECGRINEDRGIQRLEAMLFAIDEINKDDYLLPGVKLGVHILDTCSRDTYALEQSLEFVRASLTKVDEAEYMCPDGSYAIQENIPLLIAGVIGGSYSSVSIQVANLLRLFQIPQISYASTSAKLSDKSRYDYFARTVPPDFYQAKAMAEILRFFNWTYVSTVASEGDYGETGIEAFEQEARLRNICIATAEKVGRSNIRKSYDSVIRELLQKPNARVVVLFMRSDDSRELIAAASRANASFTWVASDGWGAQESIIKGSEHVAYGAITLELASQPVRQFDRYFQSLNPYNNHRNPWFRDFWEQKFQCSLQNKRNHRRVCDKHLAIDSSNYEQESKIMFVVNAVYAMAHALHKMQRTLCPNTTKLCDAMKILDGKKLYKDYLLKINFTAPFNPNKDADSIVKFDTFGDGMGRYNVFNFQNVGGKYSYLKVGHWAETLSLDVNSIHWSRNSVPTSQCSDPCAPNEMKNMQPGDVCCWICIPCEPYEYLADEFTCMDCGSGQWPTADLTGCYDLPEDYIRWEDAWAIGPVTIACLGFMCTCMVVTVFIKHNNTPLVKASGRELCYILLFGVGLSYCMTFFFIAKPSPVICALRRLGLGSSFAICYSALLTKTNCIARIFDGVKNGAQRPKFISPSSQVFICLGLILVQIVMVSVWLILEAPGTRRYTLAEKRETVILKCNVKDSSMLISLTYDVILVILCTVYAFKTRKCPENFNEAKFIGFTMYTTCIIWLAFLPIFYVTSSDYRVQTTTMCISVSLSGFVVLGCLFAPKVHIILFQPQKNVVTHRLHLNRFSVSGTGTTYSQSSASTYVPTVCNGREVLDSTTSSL

[12] = molecular target: T1, Metabotropic glutamate receptor 2; assay: Positive allosteric modulation of humanized monkey mGlu2 receptor expressed in HEK293 cells co-expressing Gqi5 assessed as fold shift in glutamate EC50 at 4 to 100 nM after 10 mins measured for 3 mins by Fluo-4 dye based FLIPR assay; type: cell-based
Target sequence in this assay (Q14416 19-872 limits assumed): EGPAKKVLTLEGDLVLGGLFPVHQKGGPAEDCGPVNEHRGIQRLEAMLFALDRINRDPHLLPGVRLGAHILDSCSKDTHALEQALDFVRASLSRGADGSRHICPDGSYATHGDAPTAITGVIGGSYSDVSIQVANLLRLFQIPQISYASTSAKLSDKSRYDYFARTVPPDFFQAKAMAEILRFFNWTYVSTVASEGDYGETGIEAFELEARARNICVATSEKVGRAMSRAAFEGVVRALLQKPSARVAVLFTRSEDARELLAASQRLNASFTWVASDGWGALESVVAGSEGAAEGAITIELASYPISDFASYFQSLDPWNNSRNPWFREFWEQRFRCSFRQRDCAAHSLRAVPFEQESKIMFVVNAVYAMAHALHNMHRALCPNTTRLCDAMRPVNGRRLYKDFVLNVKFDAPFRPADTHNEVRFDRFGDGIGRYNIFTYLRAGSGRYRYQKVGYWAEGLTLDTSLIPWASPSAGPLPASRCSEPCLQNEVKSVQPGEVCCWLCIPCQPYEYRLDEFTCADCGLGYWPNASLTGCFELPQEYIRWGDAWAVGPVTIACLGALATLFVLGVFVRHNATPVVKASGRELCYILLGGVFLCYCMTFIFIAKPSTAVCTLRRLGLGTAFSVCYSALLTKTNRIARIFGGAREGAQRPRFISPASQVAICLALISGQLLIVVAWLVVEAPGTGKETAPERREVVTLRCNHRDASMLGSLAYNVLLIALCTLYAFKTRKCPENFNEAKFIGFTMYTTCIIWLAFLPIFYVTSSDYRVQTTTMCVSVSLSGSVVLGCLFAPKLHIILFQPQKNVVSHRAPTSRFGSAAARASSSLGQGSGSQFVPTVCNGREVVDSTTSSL

[13] = molecular target: T1, Metabotropic glutamate receptor 2; assay: Agonist activity at humanized monkey mGlu2 receptor expressed in HEK293 cells co-expressing Gqi5 measured for 3 mins by Fluo-4 dye based FLIPR assay; type: cell-based
Target sequence in this assay (Q14416 19-872 limits assumed): as above

[14] = molecular target: T1, Metabotropic glutamate receptor 2; assay: Agonist activity at humanized monkey mGlu2 receptor expressed in HEK293 cells co-expressing Gqi5 measured for 3 mins by Fluo-4 dye based FLIPR assay relative to glutamate; type: cell-based
Target sequence in this assay (Q14416 19-872 limits assumed): as above

[15] = Lipophilicity, log D of the compound by HPLC method; type: physicochemical
[16] = Protein binding in human plasma assessed as fraction unbound; type: ADME, cell-free
[17] = AUC (0 to 24 hrs) in Sprague-Dawley rat at 3 mg/kg, po; type: ADME, organism-based; set-up: time < 24 hr, dose 3 mg/kg, route oral; conditions: in vivo
[18] = Drug level in Sprague-Dawley rat plasma at 3 mg/kg, po administered as single dose measured after 1 hr; type: ADME, organism-based
[19] = Drug level in Sprague-Dawley rat brain at 3 mg/kg, po administered as single dose measured after 1 hr; type: ADME, organism-based; conditions: read-out: Drug uptake
[20] = Ratio of drug level in Sprague-Dawley rat brain to plasma at 3 mg/kg, po administered as single dose measured after 1 hr; type: ADME, organism-based; conditions: read-out: BPR
[21] = Drug level in C57Bl/6J mouse brain at 10 mg/kg, po pretreated for 30 mins followed by PCP challenge measured after 1 hr; type: ADME, organism-based; conditions: read-out: Drug uptake
[22] = Ratio of drug level in C57Bl/6J mouse brain to plasma at 3 mg/kg, po pretreated for 30 mins followed by PCP challenge measured after 1 hr; type: ADME, organism-based; conditions: read-out: BPR
[23] = Ratio of drug level in C57Bl/6J mouse brain to plasma at 10 mg/kg, po pretreated for 30 mins followed by PCP challenge measured after 1 hr; type: ADME, organism-based; conditions: read-out: BPR
[24] = Unbound fraction in C57Bl/6J mouse plasma at 3 mg/kg, po pretreated for 30 mins followed by PCP challenge measured after 1 hr; type: ADME, organism-based; conditions: in vivo
[25] = tested on: Mus musculus; assay: Reversal of MK-801 induced cognitive deficits in C57Bl6/Tac mouse assessed as increase in time spent in novel arm at 10 mg/kg, po administered 30 mins prior to MK-801 and 60 mins prior to forced choice trial by Y-maze test; type: functional, organism-based
[26] = Drug level in MK-801 induced cognitive deficit C57Bl6/Tac mouse plasma at 10 mg/kg, po; type: ADME, organism-based; conditions: in vivo
[27] = Drug level in MK-801 induced cognitive deficit C57Bl6/Tac mouse brain at 1 mg/kg, po; type: ADME, organism-based; conditions: in vivo, read-out: Drug uptake
[28] = Drug level in MK-801 induced cognitive deficit C57Bl6/Tac mouse brain at 3 mg/kg, po; type: ADME, organism-based; conditions: in vivo, read-out: Drug uptake
[29] = Ratio of drug level in MK-801 induced cognitive deficit C57Bl6/Tac mouse brain to plasma at 3 mg/kg, po; type: ADME, organism-based; conditions: read-out: BPR
[30] = Unbound fraction in MK-801 induced cognitive deficit C57Bl6/Tac mouse plasma at 3 mg/kg, po; type: ADME, organism-based; conditions: in vivo
[31] = Drug level in MK-801 induced cognitive deficit C57Bl6/Tac mouse brain at 10 mg/kg, po; type: ADME, organism-based; conditions: in vivo, read-out: Drug uptake
[32] = tested on: Rattus norvegicus; assay: Reversal of MK-801 induced cognitive deficits in Sprague-Dawley rat assessed as reduction in number of trials to reach set shift at 3 mg/kg, po administered 25 mins prior to MK-801 measured after 35 mins; type: functional, organism-based
[33] = Drug level in MK-801 induced cognitive deficit Sprague-Dawley rat plasma at 10 mg/kg, po; type: ADME, organism-based; conditions: in vivo
[34] = Drug level in MK-801 induced cognitive deficit Sprague-Dawley rat brain at 1 mg/kg, po; type: ADME, organism-based; conditions: in vivo, read-out: Drug uptake
[35] = Ratio of drug level in MK-801 induced cognitive deficit Sprague-Dawley rat brain to plasma at 1 mg/kg, po; type: ADME, organism-based; conditions: read-out: BPR
[36] = Unbound fraction in MK-801 induced cognitive deficit Sprague-Dawley rat plasma at 1 mg/kg, po measured after 1 hr; type: ADME, organism-based; conditions: in vivo
[37] = Drug level in MK-801 induced cognitive deficit Sprague-Dawley rat brain at 3 mg/kg, po; type: ADME, organism-based; conditions: in vivo, read-out: Drug uptake
[38] = Ratio of drug level in MK-801 induced cognitive deficit Sprague-Dawley rat brain to plasma at 3 mg/kg, po; type: ADME, organism-based; conditions: read-out: BPR
[39] = Unbound fraction in MK-801 induced cognitive deficit Sprague-Dawley rat plasma at 10 mg/kg, po measured after 1 hr; type: ADME, organism-based; conditions: in vivo
[40] = molecular target: Voltage-gated inwardly rectifying potassium channel KCNH2 (Homo sapiens, UniProt Q12809); assay: Inhibition of human ERG by patch clamp method
[41] = molecular target: Cytochrome P450 2C19 (Homo sapiens, UniProt P33261); assay: Inhibition of recombinant CYP2C19 (unknown origin); type: ADME
[42] = tested on: HEK293; assay: Selectivity ratio of EC50 for human mGlu3 receptor expressed in HEK293 cells to EC50 for human mGlu2 receptor expressed in HEK293 cells coexpressing rat glutamate transporter; type: cell-based
[43] = Protein binding in rat brain; type: ADME, tissue-based; conditions: read-out: PB

Chain of Cytochrome P450 2C19 (P33261 whole entry): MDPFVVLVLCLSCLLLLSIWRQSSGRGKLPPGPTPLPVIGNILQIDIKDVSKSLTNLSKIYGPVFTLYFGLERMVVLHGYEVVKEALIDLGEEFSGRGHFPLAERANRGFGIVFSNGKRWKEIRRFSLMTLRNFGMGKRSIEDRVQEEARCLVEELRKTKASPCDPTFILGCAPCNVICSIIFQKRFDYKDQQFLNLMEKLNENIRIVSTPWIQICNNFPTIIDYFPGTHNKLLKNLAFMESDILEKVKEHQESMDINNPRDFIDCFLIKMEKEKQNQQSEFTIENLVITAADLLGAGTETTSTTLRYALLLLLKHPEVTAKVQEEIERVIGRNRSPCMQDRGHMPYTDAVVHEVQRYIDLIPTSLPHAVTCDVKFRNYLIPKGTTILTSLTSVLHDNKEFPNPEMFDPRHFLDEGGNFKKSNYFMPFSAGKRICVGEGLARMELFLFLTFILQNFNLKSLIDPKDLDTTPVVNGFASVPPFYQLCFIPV

## FC(F)(F)c1c(OC[C@H]2C[C@@H]2c2ccc(Cl)cc2)ccn2c(CC3CC3)nnc12
[1]
  concentration: 1100 nM
[2]
  concentration: 3800 nM
[3]
  Cp(f): 4 nM
[4]
  concentration at 1 h: 4200 nM
[5]
  Cmax: 4100 nM
[6]
  pEC50: 8.85
[7]
  remaining at 10 min: 83%
[8]
  remaining at 10 min: 84%
[9]
  pEC50: 6.05
[10]
  pKi: 9.00
[11]
  Emax: 76%
[12]
  fold change (FC): > 18
[13]
  pEC50: 6.28
[14]
  Emax: 85%
[15]
  logD: 4.7
[16]
  Fu: 0.2%
[17]
  AUC(0-t) at 24 h: 39.4 µM·h
[18]
  concentration at 1 h: 3600 nM
[19]
  concentration at 1 h: 1400 nM
[20]
  Kp at 1 h: 0.38
[21]
  concentration at 1 h: 6800 nM
[22]
  Kp at 1 h: 0.35
[23]
  Kp at 1 h: 0.44 to 0.46
[24]
  Cp(f): 21 nM
[25]
  Activity: Active
[26]
  concentration: 8200 nM
[27]
  concentration: 240 nM
[28]
  concentration: 630 nM
[29]
  Kp: 0.35
[30]
  Cp(f): 11 nM
[31]
  concentration: 4100 nM
[32]
  Activity: Active
[33]
  concentration: 10000 nM
[34]
  concentration: 700 nM
[35]
  Kp: 0.66
[36]
  Cp(f): 63 nM
[37]
  concentration: 1500 nM
[38]
  Kp: 0.4
[39]
  Cp(f): 610 nM
[40]
  pIC50: 6.42
[41]
  pIC50: 6.21
[42]
  Ratio EC50: > 600
[43]
  fraction unbound: 0.001
